# According to the NIST ThermoML archive (doi:10.1016/j.jct.2012.11.014):
# Numbers after ± are expanded uncertainties.
# What was measured:
# [1] = for speed of sound / viscosity / mass density: 101 kPa, Liquid; for speed of sound: Frequency=2 MHz, Linear variable-path acoustic interferometer; for viscosity: Oscillating disk viscometry; for mass density: Vibrating tube method; for Normal melting temperature: Crystal, visual observation
# [2] = xn = mol fraction of the nth substance listed; settings: 101 kPa, Liquid, x2 = 0; for speed of sound: Frequency=2 MHz, Linear variable-path acoustic interferometer; for viscosity: Oscillating disk viscometry; for mass density: Vibrating tube method
Structure (SMILES),speed of sound ([1]; 298.15 K),viscosity ([1]; 298.15 K),mass density ([1]; 298.15 K),speed of sound ([1]; 303.15 K),viscosity ([1]; 303.15 K),mass density ([1]; 303.15 K),speed of sound ([1]; 308.15 K),viscosity ([1]; 308.15 K),mass density ([1]; 308.15 K),speed of sound ([1]; 313.15 K),viscosity ([1]; 313.15 K),mass density ([1]; 313.15 K),speed of sound ([2]; 298.15 K),viscosity ([2]; 298.15 K),mass density ([2]; 298.15 K),speed of sound ([2]; 303.15 K),viscosity ([2]; 303.15 K),mass density ([2]; 303.15 K),speed of sound ([2]; 308.15 K),viscosity ([2]; 308.15 K),other results
C[S+](C)[O-] [dimethyl sulfoxide],1496 ± 3 m/s,1.99 ± 0.13 mPa·s,1095.37 ± 1 kg/m3,1472 ± 3 m/s,1.8 ± 0.11 mPa·s,1092.41 ± 1 kg/m3,1460 ± 3 m/s,1.65 ± 0.1 mPa·s,1086.06 ± 1 kg/m3,1442 ± 3 m/s,1.54 ± 0.1 mPa·s,1081.43 ± 1 kg/m3,,,,,,,,,
C[S+](C)[O-] [dimethyl sulfoxide] + CC(=O)[O-].C[NH+](C)C,,,,,,,,,,,,,1496 ± 3 m/s,1.99 ± 0.13 mPa·s,1095.37 ± 1 kg/m3,1472 ± 3 m/s,1.8 ± 0.11 mPa·s,1092.41 ± 1 kg/m3,1460 ± 3 m/s,1.65 ± 0.1 mPa·s,mass density ([2]; 308.15 K): 1086.06 ± 1 kg/m3; speed of sound ([2]; 313.15 K): 1442 ± 3 m/s; viscosity ([2]; 313.15 K): 1.54 ± 0.1 mPa·s; mass density ([2]; 313.15 K): 1081.43 ± 1 kg/m3
C[S+](C)[O-] [dimethyl sulfoxide] + C[NH+](C)C.O=P([O-])(O)O,,,,,,,,,,,,,1496 ± 3 m/s,1.99 ± 0.13 mPa·s,1095.37 ± 1 kg/m3,1472 ± 3 m/s,1.8 ± 0.11 mPa·s,1092.41 ± 1 kg/m3,1460 ± 3 m/s,1.65 ± 0.1 mPa·s,mass density ([2]; 308.15 K): 1086.06 ± 1 kg/m3; speed of sound ([2]; 313.15 K): 1442 ± 3 m/s; viscosity ([2]; 313.15 K): 1.54 ± 0.1 mPa·s; mass density ([2]; 313.15 K): 1081.43 ± 1 kg/m3
C[S+](C)[O-] [dimethyl sulfoxide] + C[NH+](C)C.O=S(=O)([O-])O,,,,,,,,,,,,,1496 ± 3 m/s,1.99 ± 0.13 mPa·s,1095.37 ± 1 kg/m3,1472 ± 3 m/s,1.8 ± 0.11 mPa·s,1092.41 ± 1 kg/m3,1460 ± 3 m/s,1.65 ± 0.1 mPa·s,mass density ([2]; 308.15 K): 1086.06 ± 1 kg/m3; speed of sound ([2]; 313.15 K): 1442 ± 3 m/s; viscosity ([2]; 313.15 K): 1.54 ± 0.1 mPa·s; mass density ([2]; 313.15 K): 1081.43 ± 1 kg/m3
CC(=O)[O-].C[NH+](C)C [trimethylammonium acetate],1544 ± 3 m/s,2.76 ± 0.18 mPa·s,1053.85 ± 1 kg/m3,1514 ± 3 m/s,2.37 ± 0.16 mPa·s,1049.87 ± 1 kg/m3,1508 ± 3 m/s,2.06 ± 0.14 mPa·s,1045.81 ± 1 kg/m3,1490 ± 3 m/s,1.83 ± 0.12 mPa·s,1041.7 ± 1 kg/m3,,,,,,,,,
C[NH+](C)C.O=P([O-])(O)O [trimethylammonium dihydrogen phosphate],1672 ± 3 m/s,7.64 ± 0.52 mPa·s,1353.61 ± 1.1 kg/m3,1660 ± 3 m/s,6.46 ± 0.44 mPa·s,1350.62 ± 1.1 kg/m3,1661 ± 3 m/s,5.61 ± 0.37 mPa·s,1347.59 ± 1.1 kg/m3,1664 ± 3 m/s,5.07 ± 0.32 mPa·s,1344.52 ± 1.1 kg/m3,,,,,,,,,Normal melting temperature [1]: 116.00 ± 1 °C
C[NH+](C)C.O=S(=O)([O-])O [trimethylammonium hydrogen sulfate],1564 ± 3 m/s,5.1 ± 0.33 mPa·s,1467.58 ± 1.2 kg/m3,1560 ± 3 m/s,4.48 ± 0.29 mPa·s,1463.57 ± 1.2 kg/m3,1556 ± 3 m/s,3.94 ± 0.27 mPa·s,1463.5 ± 1.2 kg/m3,1552 ± 3 m/s,3.16 ± 0.25 mPa·s,1455.63 ± 1.2 kg/m3,,,,,,,,,Normal melting temperature [1]: 129.00 ± 1 °C
